From ChEMBL document CHEMBL1144021, “Molecular determinants of the anticonvulsant felbamate binding site in the N-methyl-D-aspartate receptor” (J Med Chem, 2008)

Tests used:
[1] = test system: Glutamate receptor ionotropic, NMDA 2B (Homo sapiens), Q13224 [T233A]; experiment: Inhibition of NR2B receptor ATD T233A mutant expressed in Xenopus oocytes assessed as NMDA current at 0.5 mM relative to control; assay type: cell-based; details: Oocyte
[2] = test system: Glutamate receptor ionotropic, NMDA 2B (Homo sapiens), Q13224 [N542A]; experiment: Inhibition of NR2B receptor Pre-M1 N542A mutant expressed in Xenopus oocytes assessed as NMDA current at 0.5 mM relative to control; assay type: cell-based; details: Oocyte
Glutamate receptor ionotropic, NMDA 2B (Homo sapiens), Q13224 [N542A], sequence (Q13224 whole entry N542A): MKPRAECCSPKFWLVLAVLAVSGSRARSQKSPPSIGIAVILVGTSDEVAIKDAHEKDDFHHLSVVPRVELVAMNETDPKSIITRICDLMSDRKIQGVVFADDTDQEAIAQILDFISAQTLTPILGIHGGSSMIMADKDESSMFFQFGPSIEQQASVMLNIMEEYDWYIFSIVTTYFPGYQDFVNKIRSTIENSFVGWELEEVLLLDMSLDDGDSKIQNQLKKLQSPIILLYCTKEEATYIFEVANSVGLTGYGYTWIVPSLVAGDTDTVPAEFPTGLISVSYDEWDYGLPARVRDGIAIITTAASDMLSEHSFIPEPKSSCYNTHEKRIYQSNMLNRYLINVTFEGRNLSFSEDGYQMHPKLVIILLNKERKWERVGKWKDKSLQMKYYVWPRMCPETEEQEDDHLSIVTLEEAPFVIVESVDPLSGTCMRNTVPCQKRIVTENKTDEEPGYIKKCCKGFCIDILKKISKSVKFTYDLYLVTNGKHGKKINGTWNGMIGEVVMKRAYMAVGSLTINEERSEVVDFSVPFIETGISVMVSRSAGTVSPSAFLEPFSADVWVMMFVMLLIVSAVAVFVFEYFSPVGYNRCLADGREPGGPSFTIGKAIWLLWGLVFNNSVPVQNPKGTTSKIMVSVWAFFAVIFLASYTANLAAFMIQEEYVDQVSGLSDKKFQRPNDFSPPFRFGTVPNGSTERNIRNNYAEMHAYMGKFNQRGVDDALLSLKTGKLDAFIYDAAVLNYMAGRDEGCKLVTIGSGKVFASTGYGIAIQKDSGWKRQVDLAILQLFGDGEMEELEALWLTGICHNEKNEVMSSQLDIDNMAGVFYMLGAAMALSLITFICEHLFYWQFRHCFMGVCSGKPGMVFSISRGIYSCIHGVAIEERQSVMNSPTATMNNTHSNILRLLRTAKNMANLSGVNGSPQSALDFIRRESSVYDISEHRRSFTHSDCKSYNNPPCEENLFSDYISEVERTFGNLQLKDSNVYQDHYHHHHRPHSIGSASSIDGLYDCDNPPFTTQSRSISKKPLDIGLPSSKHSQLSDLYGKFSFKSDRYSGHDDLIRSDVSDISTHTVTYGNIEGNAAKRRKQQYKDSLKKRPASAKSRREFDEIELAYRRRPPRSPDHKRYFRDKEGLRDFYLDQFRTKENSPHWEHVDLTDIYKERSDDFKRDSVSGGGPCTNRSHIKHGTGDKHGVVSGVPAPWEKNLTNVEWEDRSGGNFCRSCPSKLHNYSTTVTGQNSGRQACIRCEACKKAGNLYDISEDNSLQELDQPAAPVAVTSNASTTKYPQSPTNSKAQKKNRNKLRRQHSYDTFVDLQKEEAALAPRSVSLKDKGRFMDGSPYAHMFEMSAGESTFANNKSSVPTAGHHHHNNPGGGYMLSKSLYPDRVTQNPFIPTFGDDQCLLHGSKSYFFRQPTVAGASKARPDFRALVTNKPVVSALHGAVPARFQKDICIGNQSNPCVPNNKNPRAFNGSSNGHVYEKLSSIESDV

[3] = test system: Glutamate receptor ionotropic, NMDA 2B (Homo sapiens), Q13224 [T544A]; experiment: Inhibition of NR2B receptor Pre-M1 T544A mutant expressed in Xenopus oocytes assessed as NMDA current at 0.5 mM relative to control; assay type: cell-based; details: Oocyte
[4] = test system: Glutamate receptor ionotropic, NMDA 2B (Homo sapiens), Q13224 [S645A]; experiment: Inhibition of NR2B receptor M3c S645A mutant expressed in Xenopus oocytes assessed as NMDA current at 0.5 mM relative to control; assay type: cell-based; details: Oocyte
Glutamate receptor ionotropic, NMDA 2B (Homo sapiens), Q13224 [S645A], sequence (Q13224 whole entry S645A): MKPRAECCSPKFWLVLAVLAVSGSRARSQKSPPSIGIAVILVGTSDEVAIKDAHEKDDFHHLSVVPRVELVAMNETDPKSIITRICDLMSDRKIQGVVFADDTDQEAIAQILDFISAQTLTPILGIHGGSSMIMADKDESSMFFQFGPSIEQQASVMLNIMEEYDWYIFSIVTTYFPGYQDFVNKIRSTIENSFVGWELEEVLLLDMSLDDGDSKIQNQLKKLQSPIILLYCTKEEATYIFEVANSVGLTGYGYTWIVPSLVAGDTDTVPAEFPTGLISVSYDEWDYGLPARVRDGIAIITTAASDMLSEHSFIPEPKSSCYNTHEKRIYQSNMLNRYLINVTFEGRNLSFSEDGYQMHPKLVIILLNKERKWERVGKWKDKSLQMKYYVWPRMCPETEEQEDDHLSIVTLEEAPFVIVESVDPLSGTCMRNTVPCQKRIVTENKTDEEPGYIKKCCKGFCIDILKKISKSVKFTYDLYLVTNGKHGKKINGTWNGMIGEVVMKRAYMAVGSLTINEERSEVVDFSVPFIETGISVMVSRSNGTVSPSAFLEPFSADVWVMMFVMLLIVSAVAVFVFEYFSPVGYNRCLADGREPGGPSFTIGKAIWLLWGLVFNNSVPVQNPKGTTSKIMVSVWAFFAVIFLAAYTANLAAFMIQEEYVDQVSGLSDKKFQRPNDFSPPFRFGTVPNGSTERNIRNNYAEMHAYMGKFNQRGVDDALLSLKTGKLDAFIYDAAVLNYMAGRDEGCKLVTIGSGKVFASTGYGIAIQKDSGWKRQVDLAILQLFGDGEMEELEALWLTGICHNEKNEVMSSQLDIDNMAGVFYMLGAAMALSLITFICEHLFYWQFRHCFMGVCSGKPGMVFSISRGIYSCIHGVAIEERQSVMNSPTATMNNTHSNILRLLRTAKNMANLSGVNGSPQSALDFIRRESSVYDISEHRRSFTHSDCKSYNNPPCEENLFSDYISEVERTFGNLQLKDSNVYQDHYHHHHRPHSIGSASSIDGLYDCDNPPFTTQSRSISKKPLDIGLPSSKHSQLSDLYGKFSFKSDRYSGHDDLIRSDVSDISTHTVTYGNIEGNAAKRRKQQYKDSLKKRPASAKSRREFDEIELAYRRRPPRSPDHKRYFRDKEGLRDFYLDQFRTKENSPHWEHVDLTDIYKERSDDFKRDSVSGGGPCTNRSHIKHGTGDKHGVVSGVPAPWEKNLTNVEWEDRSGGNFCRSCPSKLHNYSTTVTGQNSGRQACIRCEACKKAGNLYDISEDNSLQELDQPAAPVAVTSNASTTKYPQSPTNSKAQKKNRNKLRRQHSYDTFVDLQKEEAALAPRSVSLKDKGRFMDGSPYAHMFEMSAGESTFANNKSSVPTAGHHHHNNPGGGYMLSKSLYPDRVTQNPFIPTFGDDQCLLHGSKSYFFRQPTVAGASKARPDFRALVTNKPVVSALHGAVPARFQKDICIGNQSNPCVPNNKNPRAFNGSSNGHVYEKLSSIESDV

[5] = test system: Glutamate receptor ionotropic, NMDA 2B (Homo sapiens), Q13224 [Y646A]; experiment: Inhibition of NR2B receptor M3c Y646A mutant expressed in Xenopus oocytes assessed as NMDA current at 0.5 mM relative to control; assay type: cell-based; details: Oocyte
[6] = Binding affinity to NR2B receptor M3c […] mutant
[7] = test system: Glutamate receptor ionotropic, NMDA 2B (Homo sapiens), Q13224 [L643A,T647A]; experiment: Binding affinity to NR2B receptor L643A/T647A mutant
Glutamate receptor ionotropic, NMDA 2B (Homo sapiens), Q13224 [L643A,T647A], sequence (Q13224 whole entry L643A/T647A): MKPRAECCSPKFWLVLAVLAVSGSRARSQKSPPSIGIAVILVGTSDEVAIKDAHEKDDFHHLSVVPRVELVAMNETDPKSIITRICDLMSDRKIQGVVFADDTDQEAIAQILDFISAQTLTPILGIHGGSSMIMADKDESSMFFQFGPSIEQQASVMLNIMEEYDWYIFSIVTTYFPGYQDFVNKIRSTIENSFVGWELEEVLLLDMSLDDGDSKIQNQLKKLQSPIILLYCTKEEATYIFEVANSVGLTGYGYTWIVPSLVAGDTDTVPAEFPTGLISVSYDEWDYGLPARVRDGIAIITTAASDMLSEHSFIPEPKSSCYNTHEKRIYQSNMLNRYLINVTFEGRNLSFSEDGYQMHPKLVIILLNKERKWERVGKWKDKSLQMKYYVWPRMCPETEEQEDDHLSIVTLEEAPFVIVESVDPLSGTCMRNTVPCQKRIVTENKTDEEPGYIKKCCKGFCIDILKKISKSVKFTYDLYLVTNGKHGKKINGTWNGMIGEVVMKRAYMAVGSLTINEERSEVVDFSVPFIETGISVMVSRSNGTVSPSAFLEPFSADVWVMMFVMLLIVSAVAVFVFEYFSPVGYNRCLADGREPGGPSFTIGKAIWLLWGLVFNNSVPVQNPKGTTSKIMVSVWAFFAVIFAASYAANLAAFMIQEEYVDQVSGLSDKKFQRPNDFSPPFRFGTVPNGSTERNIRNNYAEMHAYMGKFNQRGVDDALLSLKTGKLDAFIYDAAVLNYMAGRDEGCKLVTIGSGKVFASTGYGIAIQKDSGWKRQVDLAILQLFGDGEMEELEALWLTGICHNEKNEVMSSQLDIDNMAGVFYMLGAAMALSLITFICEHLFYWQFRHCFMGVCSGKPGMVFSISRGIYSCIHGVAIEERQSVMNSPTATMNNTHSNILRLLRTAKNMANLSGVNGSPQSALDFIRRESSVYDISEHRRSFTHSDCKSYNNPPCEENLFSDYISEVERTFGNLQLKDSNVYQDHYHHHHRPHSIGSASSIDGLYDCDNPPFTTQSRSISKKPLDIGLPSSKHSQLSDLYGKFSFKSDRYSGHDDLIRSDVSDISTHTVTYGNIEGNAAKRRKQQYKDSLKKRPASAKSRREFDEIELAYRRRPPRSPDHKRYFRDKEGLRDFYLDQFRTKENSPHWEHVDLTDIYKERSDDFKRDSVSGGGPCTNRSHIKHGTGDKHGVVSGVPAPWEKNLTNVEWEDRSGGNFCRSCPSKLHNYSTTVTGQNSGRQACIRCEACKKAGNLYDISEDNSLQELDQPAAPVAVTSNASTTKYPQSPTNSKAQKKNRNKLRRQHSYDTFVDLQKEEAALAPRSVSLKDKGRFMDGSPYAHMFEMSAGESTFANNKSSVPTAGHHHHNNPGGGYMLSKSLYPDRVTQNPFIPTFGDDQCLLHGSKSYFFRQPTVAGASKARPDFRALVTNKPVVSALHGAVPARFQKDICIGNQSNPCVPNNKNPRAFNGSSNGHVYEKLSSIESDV

[8] = test system: Glutamate receptor ionotropic, NMDA 2B (Homo sapiens), Q13224 [L643C,T647A]; experiment: Binding affinity to NR2B receptor L643C/T647A mutant
[9] = test system: Glutamate receptor ionotropic, NMDA 2B (Homo sapiens), Q13224 [L643A,T103A]; experiment: Binding affinity to NR2B receptor L643A/T103A mutant
[10] = test system: Glutamate receptor ionotropic, NMDA 2B (Homo sapiens), Q13224 [D104A]; experiment: Inhibition of NR2B receptor ATD D104A mutant expressed in Xenopus oocytes assessed as NMDA current at 0.5 mM relative to control; assay type: cell-based; details: Oocyte
[11] = test system: Glutamate receptor ionotropic, NMDA 2B (Homo sapiens), Q13224 [F176A]; experiment: Inhibition of NR2B receptor ATD F176A mutant expressed in Xenopus oocytes assessed as NMDA current at 0.5 mM relative to control; assay type: cell-based; details: Oocyte
[12] = test system: Glutamate receptor ionotropic, NMDA 2B (Homo sapiens), Q13224 [S555A]; experiment: Inhibition of NR2B receptor Pre-M1 S555A mutant expressed in Xenopus oocytes assessed as NMDA current at 0.5 mM relative to control; assay type: cell-based; details: Oocyte
[13] = test system: Glutamate receptor ionotropic, NMDA 2B (Homo sapiens), Q13224 [N615A]; experiment: Inhibition of NR2B receptor M2 N615A mutant expressed in Xenopus oocytes assessed as NMDA current at 0.5 mM relative to control; assay type: cell-based; details: Oocyte
[14] = test system: Glutamate receptor ionotropic, NMDA 2B (Homo sapiens), Q13224 [L643A]; experiment: Inhibition of NR2B receptor M3c L643A mutant expressed in Xenopus oocytes assessed as NMDA current at 0.5 mM relative to control; assay type: cell-based; details: Oocyte
[15] = test system: Glutamate receptor ionotropic, NMDA 2B (Homo sapiens), Q13224 [T647A]; experiment: Inhibition of NR2B receptor M3c T647A mutant expressed in Xenopus oocytes assessed as NMDA current at 0.5 mM relative to control; assay type: cell-based; details: Oocyte
[16] = test system: Glutamate receptor ionotropic, NMDA 2B (Homo sapiens), Q13224 [M654A]; experiment: Inhibition of NR2B receptor post-M3 M654A mutant expressed in Xenopus oocytes assessed as NMDA current at 0.5 mM relative to control; assay type: cell-based; details: Oocyte
[17] = test system: Glutamate receptor ionotropic, NMDA 2B (Homo sapiens), Q13224 [I655A]; experiment: Inhibition of NR2B receptor post-M3 I655A mutant expressed in Xenopus oocytes assessed as NMDA current at 0.5 mM relative to control; assay type: cell-based; details: Oocyte
[18] = test system: Glutamate receptor ionotropic, NMDA 2B (Homo sapiens), Q13224 [Q656A]; experiment: Inhibition of NR2B receptor post-M3 Q656A mutant expressed in Xenopus oocytes assessed as NMDA current at 0.5 mM relative to control; assay type: cell-based; details: Oocyte
[19] = test system: Glutamate receptor ionotropic, NMDA 2B (Homo sapiens), Q13224 [E657A]; experiment: Inhibition of NR2B receptor post-M3 E657A mutant expressed in Xenopus oocytes assessed as NMDA current at 0.5 mM relative to control; assay type: cell-based; details: Oocyte
[20] = test system: Glutamate receptor ionotropic, NMDA 2B (Homo sapiens), Q13224 [D101A]; experiment: Binding affinity to NR2B receptor ATD D101A mutant
[21] = test system: Glutamate receptor ionotropic, NMDA 2B (Homo sapiens), Q13224 [T103A]; experiment: Binding affinity to NR2B receptor ATD T103A mutant
[22] = test system: Glutamate receptor ionotropic, NMDA 2B (Homo sapiens), Q13224 [I641A]; experiment: Binding affinity to NR2B receptor M3c I641A mutant
[23] = Ratio of Kapp for wild type NR2B receptor to Kapp for NR2B receptor L643A/T647A mutant
[24] = test system: Glutamate receptor ionotropic, NMDA 2B (Homo sapiens), Q13224 [L643A,S645A]; experiment: Binding affinity to NR2B receptor L643A/S645A mutant
[25] = test system: Glutamate receptor ionotropic, NMDA 2B (Homo sapiens), Q13224 [S645A,T103A]; experiment: Binding affinity to NR2B receptor S645A/T103A mutant
[26] = test system: Glutamate receptor ionotropic, NMDA 2B (Homo sapiens), Q13224 [S645A,K234A]; experiment: Binding affinity to NR2B receptor S645A/K234A mutant
[27] = Ratio of Kapp for wild type NR2B receptor to Kapp for NR2B receptor ATD D101A mutant
[28] = Ratio of Kapp for wild type NR2B receptor to Kapp for NR2B receptor ATD T103A mutant
[29] = Ratio of Kapp for wild type NR2B receptor to Kapp for ATD NR2B receptor F176A mutant
[30] = Ratio of Kapp for wild type NR2B receptor to Kapp for NR2B receptor ATD T233A mutant
[31] = Ratio of Kapp for wild type NR2B receptor to Kapp for NR2B receptor ATD K234A mutant
[32] = Ratio of Kapp for wild type NR2B receptor to Kapp for NR2B receptor ATD E236A mutant
[33] = Ratio of Kapp for wild type NR2B receptor to Kapp for NR2B receptor M3c T647A mutant
[34] = Ratio of Kapp for wild type NR2B receptor to Kapp for NR2B receptor M3c A652T mutant
[35] = Ratio of Kapp for wild type NR2B receptor to Kapp for NR2B receptor S645A/I641A mutant
[36] = Ratio of Kapp for wild type NR2B receptor to Kapp for NR2B receptor T103A/K234A mutant

## NC(=O)OCC(COC(N)=O)c1ccccc1
[1]
  inhibition: 84%
[2]
  inhibition: 73%
[3]
  inhibition: 69%
[4]
  inhibition: 85%
[5]
  inhibition: 74%
[6]
  Kapp: 5.64 mM
[7]
  Kapp: 34.5 mM
[8]
  Kapp: 18.6 mM
[9]
  Kapp: 5.07 mM
[10]
  inhibition: 75%
[11]
  inhibition: 84%
[12]
  inhibition: 72%
[13]
  inhibition: 66%
[14]
  inhibition: 90%
[15]
  inhibition: 89%
[16]
  inhibition: 71%
[17]
  inhibition: 76%
[18]
  inhibition: 70%
[19]
  inhibition: 61%
[20]
  Kapp: 2.76 mM
[21]
  Kapp: 4.21 mM
[22]
  Kapp: 2.45 mM
[23]
  Ratio Ki(app): 40
[24]
  Kapp: 6.68 mM
[25]
  Kapp: 6.28 mM
[26]
  Kapp: 7.1 mM
[27]
  Ratio Ki(app): 3.2
[28]
  Ratio Ki(app): 4.8
[29]
  Ratio Ki(app): 3.2
[30]
  Ratio Ki(app): 2.9
[31]
  Ratio Ki(app): 4.9
[32]
  Ratio Ki(app): 2.5
[33]
  Ratio Ki(app): 7.5
[34]
  Ratio Ki(app): 3.3
[35]
  Ratio Ki(app): 5.1
[36]
  Ratio Ki(app): 4.8
